Measured values published in patent US9593084B2 (Parion Sciences, Inc., priority 2012, dated 2017).
Marks after values point to notes of the source that are not given here.

How the values were obtained:
Sheep MCC = assay: Mucociliary clearance (MCC) studies in sheep; assay type: in vivo
Summary of the method: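 MCC read-out: gamma-camera counts over right lung at 5-min intervals for one hour, expressed as 30-min slope, 1-h AUC or maximal clearance. Radiolabelled TSC inhaled 4 or 8 h after nebulized test agent (4 mL, optionally followed by HS) in intubated adult sheep.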

[1] = Plasma potassium levels in sheep of the MCC study; assay type: in vivo
Experimental: In these studies, adult sheep were restrained and nasally intubated with an endotracheal tube. Aerosolized test articles were administered over 10-15 minutes to sheep. Radiolabeled ^99mTc-sulfur colloid (TSC, 3.1 mg/mL; containing approximately 20 mCi) was then administered at a specified time four or eight hours after test article. The radiolabeled aerosol was administered through the endotracheal tube for about 5 minutes. The sheep were then extubated, and total radioactive counts in the lung were measured every 5 minutes for a 1-hour observation period. The rate of radiolabel clearance from the lung is representative of the MCC rate in the animal. The advantage of this system is that it closely simulates the human lung environment. The model also allows for the collection of simultaneous PK/PD information through plasma and urine sampling over the test period. There are also several techniques to measure the drug concentrations on the airway surface during the MCC measurements. These include the collection of exhaled breath condensates or a filter paper method to obtain ASL via bronchoscopy.
The compound of Comparative Example 1 can be seen on page 15 of US 2005/0080093 and as Compound 2 on page 90 of WO 2008/031048, and as Compound 2 on pages 42-43 of WO 2008/031028. […] In order to evaluate this potential, it is beneficial to have MCC activity in vivo and not cause elevation of plasma potassium at the useful dose. One model to assess this is the sheep MCC model described below.

[2] = sheep, aerosol, 0.24 nmol/kg (3 μM), MCC at 4 h post-dose
[3] = sheep, aerosol, 0.24 nmol/kg (3 μM), MCC at 8 h post-dose

With N=C(NCCCCc1ccc(C[C@H](N)C(=O)Nc2ccc(CCCN(C[C@H](O)[C@@H](O)[C@H](O)[C@H](O)CO)C[C@H](O)[C@@H](O)[C@H](O)[C@H](O)CO)cc2)c2ccccc12)NC(=O)c1nc(Cl)c(N)nc1N [Compound 33, 3,5-diamino-N—(N-(4-(4-((S)-2-amino-3-(4-(3-(bis((2S,3R,4R,5R)-2,3,4,5,6-pentahydroxyhexyl)amino)propyl)phenylamino)-3-oxopropyl)naphthalen-1-yl)butyl)carbamimidoyl)-6-chloropyrazine-2-carboxamide] the “benefit to risk ratio” value (Sheep MCC; sheep MCC model) was “greater than 1000”, the “effect on MCC compared to vehicle” value (Sheep MCC; sheep, 0.24 nmol/kg (3 μM), 4 h post-dose) was “enhanced MCC compared to vehicle control” and the “Initial Slope (4.0-4.5 h)” value (Sheep MCC; sheep, 0.240 nmol/kg (30 μM), MCC at 4 h post-dose) was 37.5* (4). The “AUC (% CI × h)” value (Sheep MCC; sheep, 0.240 nmol/kg, MCC at 4 h post-dose) was 17.4* (4) % CI × h, the “effect of hypertonic saline (HS) on the MCC effect” value (Sheep MCC; sheep, 7% HS dosed immediately following 0.24 nmol/kg, MCC eight hours after combined dosing) was “HS increased the effect of Compound 33 on MCC” and the “duration of action on MCC vs. vehicle” value (Sheep MCC; sheep, 8 hours post dose) was “enhanced duration action of MCC vs. vehicle”. The “AUC (% Cl-h)” value (Sheep MCC; [2]) was 17.4* (4) % Cl-h, the “Initial Slope (4.0-4.5 h)” value (Sheep MCC; [2]) was 37.5* (4) and the “AUC (% Cl-h)” value (Sheep MCC; [3]) was 11.7* (4) % Cl-h. For the same compound, the “Initial Slope (8.0-8.5 h)” value (Sheep MCC; [3]) was 25.8* (4), the “MCC Highest Submaximal Dose” value (Sheep MCC; sheep, solution concentration given beside the dose) was <0.24 nmol/kg (3 μM) and the “Therapeutic Ratio (Benefit/Risk)” value (Sheep MCC; sheep, top dose without plasma potassium elevation vs MCC highest submaximal dose) was greater than 100. For the same compound, the “effect on plasma potassium” value ([1]; sheep of the MCC study, at efficacious dose) was “free of potassium elevations” and the “Therapeutic Index, times greater renal safety than Comparative Example 1” value ([1]; sheep, versus Comparative Example 1) was “more than 1,000”.
